How the values were obtained:
[1] = Concentration of CMM in saturated aqueous solution; assay type: physicochemical; conditions: 25° C.
Method: Successively, the glass vessel was sealed, and the suspension was stirred two days with keeping the temperature at 25° C. to give a saturated solution. After removing the solid CMM by filtrating the saturated solution, the moisture content of the filtrate was measured by the drying loss method to determine the concentration of CMM in saturated solution.

mice = assay: Acute toxicity test; assay type: in vivo
Excerpt: By using mice, CMM obtained by the method in Experiment 14 was orally administrated to the mice for its acute toxicity test. […] Though not so accurate, the value of LD50 of CMM was 5 g/kg-mouse weight or higher.

[2] = Reducing power by the Somogyi-Nelson method; assay type: physicochemical
Excerpt: It was concluded that the saccharide was a non-reducing saccharide substantially.

[3] = Amino-carbonyl reaction with polypeptone; assay type: physicochemical; conditions: 5% (w/v) saccharide, 5% (w/v) polypeptone, 120° C., blank subtracted
Method: (§1) As a control, an aqueous solution containing maltose and polypeptone was prepared in the same manner using maltose except for the powdery hydrous crystalline CMM. Four milliliters each of the solution was put in a glass tube, sealed and then heated at 120° C. for 30, 60, or 90 min. After cooling the solutions, the degrees of coloring of the solutions were measured to estimate the degree of amino-carbonyl reaction. As a blank test, a solution containing polypeptone only was heated in the same manner. The degree of coloring was defined as an absorbance at 480 nm using a 1 cm-cell after subtracting the absorbance of the blank test.

rat cecal contents = assay: Test for fermentability by rat cecal contents; assay type: in vitro ADME, Wister-rat
Method: According to the method of Oku et al., described in Journal of Nutritional Science and Vitaminology, vol. […] The cecal contents was collected under an anaerobic condition by killing a Wister-rat under anesthesia and suspended into 4-folds by volume of 0.1 M sodium bicarbonate aqueous solution, and then used for the test. CMM was added to the cecal contents by about 7% (w/w) of the weight of the cecal contents. The amounts of CMM at just after mixing and after 12 hours were determined by gas-chromatography. […] About 92% of CMM was not fermented and remained.

Salivary α-amylase = target: T1, Salivary α-amylase (Homo sapiens, UniProt P0DUB6)
T1 sequence (P0DUB6 16-511): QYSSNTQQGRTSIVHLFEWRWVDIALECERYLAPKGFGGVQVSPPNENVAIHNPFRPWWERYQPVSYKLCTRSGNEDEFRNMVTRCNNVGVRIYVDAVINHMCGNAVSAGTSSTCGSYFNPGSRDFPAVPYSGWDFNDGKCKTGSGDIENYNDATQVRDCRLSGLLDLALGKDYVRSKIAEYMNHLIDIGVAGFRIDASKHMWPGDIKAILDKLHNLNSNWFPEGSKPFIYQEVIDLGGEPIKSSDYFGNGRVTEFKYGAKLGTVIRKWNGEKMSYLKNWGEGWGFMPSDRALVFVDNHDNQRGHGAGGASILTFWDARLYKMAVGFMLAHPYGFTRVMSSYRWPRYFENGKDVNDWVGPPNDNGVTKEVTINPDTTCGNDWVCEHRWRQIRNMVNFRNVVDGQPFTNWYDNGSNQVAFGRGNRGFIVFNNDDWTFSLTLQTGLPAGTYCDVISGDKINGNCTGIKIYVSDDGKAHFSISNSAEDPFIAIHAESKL
Excerpt: (§2) 43, 23-29 (1990), the digestibility of CMM by salivary α-amylase, artificial gastric juice, pancreas amylase, and small intestinal enzymes were investigated using the powdery hydrous crystalline CMM, obtained by the method in Experiment 14.

[4] = Amino-carbonyl reaction with glycine; assay type: physicochemical; conditions: […] (w/v) saccharide, 0.5% (w/v) glycine, pH 8.0, 100° C.
Method: as §1, with “glycine” for “polypeptone”, “100°” for “120°”, “reaction.” for “reaction. As a blank test, a solution containing polypeptone only was heated in the same manner.”, “cm-cell.” for “cm-cell after subtracting the absorbance of the blank test.”

[5] = Clathrating action of CMM; assay type: physicochemical; conditions: for strength of clathrating activity in comparison with branched cyclodextrin: on a weight basis
Excerpt: One hundred grams of the aqueous solution was admixed with 1.2 g of methanol, 1.7 g of ethanol, or 2.2 g of acetic acid as flavor components for allowing CMM to clathrate the flavor components. Successively, each solution was filtrated, and the resulting filtrate was freeze-dried to remove unclathrated flavor component. As a control, “ISOELITE P”, a mixture of branched cyclodextrins commercialized by Maruha Corporation, Tokyo, Japan, which has been known to have a clathrating activity, was tested by the same procedure. In order to measure the amount of flavor component clathrated in the freeze-dried powder, 1 g of each freeze-dried powder was dissolved in 5 ml of water and admixed with 5 ml of diethylether to extract the flavor component, and the extraction was repeated once more. The amount of the extracted flavor component in diethylether was measured by gas-chromatography.

pH stability of CMM = assay type: physicochemical; conditions: 4% (w/v) CMM, 100° C. for 24 hours
Method: Eight milliliters of each solution was put in a glass tube, sealed and then heated at 100° C. for 24 hours. After cooling the solution, the degree of coloring and the purity of CMM were measured in the same manner in Experiment 17.

Excerpt for Small intestinal enzymes: as §2

SMILES: OC[C@H]1O[C@@H]2OC[C@H]3O[C@H](O[C@H]4[C@H](O)[C@@H](O)[C@@H](OC[C@H]5O[C@H](O[C@H]1[C@H](O)[C@H]2O)[C@H](O)[C@@H](O)[C@@H]5O)O[C@@H]4CO)[C@H](O)[C@@H](O)[C@@H]3O [CMM, cyclo{>6)-α-D-glucopyranosyl-(1>4)-α-D-glucopyranosyl-(1>6)-α-D-glucopyranosyl-(1>4)-α-D-glucopyranosyl-(1>}]
- saturated concentration of CMM to water [1]: about 8.0 % (w/w)
- mortality (mice; oral administration at the highest possible dose): no mouse died
- LD50 (mice; oral administration, mice, though not so accurate): ≥ 5 g/kg-mouse weight
- Degradation rate (%) (Small intestinal enzymes): 0%
- reducing power [2]: less than the measurable limit
- Degree of coloring (A480 nm) ([3]; heating time 0 min): 0.00
- Degree of coloring (A480 nm) ([3]; heating time 30 min): 0.00
- Degree of coloring (A480 nm) ([3]; heating time 60 min): 0.00
- Degree of coloring (A480 nm) ([3]; heating time 90 min): 0.00
- CMM not fermented and remained (rat cecal contents; after 12 hours): About 92%
- concentration of CMM in the cecal contents (rat cecal contents; after 12 hours): 63.0 mg/g-cecal contents
- concentration of CMM in the cecal contents (rat cecal contents; just after adding): 68.5 mg/g-cecal contents
- Degradation rate (%) (Salivary α-amylase): 0%
- Degree of coloring (A480 nm) ([4]; heating time 0 min): 0.00
- Degree of coloring (A480 nm) ([4]; heating time 30 min): 0.00
- Degree of coloring (A480 nm) ([4]; heating time 60 min): 0.00
- Degree of coloring (A480 nm) ([4]; heating time 90 min): 0.00
- strength of clathrating activity in comparison with branched cyclodextrin ([5]; acetic acid): ~0.8 fold
- strength of clathrating activity in comparison with branched cyclodextrin ([5]; ethanol): ~0.5 fold
- Amount of flavor component clathrated (mg/g-freeze-dried powder) ([5]; flavor component Acetic acid): 30.55 mg/g-freeze-dried powder
- Amount of flavor component clathrated (mg/g-freeze-dried powder) ([5]; flavor component Ethanol): 4.20 mg/g-freeze-dried powder
- Amount of flavor component clathrated (mg/g-freeze-dried powder) ([5]; flavor component Methanol): 4.30 mg/g-freeze-dried powder
- strength of clathrating activity in comparison with branched cyclodextrin ([5]; methanol): about 1.3 folds
- Degree of coloring (A480 nm) (pH stability of CMM; pH 2.0, Acetate buffer): 0
- Purity (%) (pH stability of CMM; pH 2.0, Acetate buffer): 93%
- Degree of coloring (A480 nm) (pH stability of CMM; pH 3.0, Acetate buffer): 0
- Purity (%) (pH stability of CMM; pH 3.0, Acetate buffer): 100%
- Degree of coloring (A480 nm) (pH stability of CMM; pH 4.0, Acetate buffer): 0
- Purity (%) (pH stability of CMM; pH 4.0, Acetate buffer): 100%
- Degree of coloring (A480 nm) (pH stability of CMM; pH 5.0, Acetate buffer): 0
- Purity (%) (pH stability of CMM; pH 5.0, Acetate buffer): 100%
- Degree of coloring (A480 nm) (pH stability of CMM; pH 6.0, Tris-HCl buffer): 0
- Purity (%) (pH stability of CMM; pH 6.0, Tris-HCl buffer): 100%
- Degree of coloring (A480 nm) (pH stability of CMM; pH 7.0, Tris-HCl buffer): 0
- Purity (%) (pH stability of CMM; pH 7.0, Tris-HCl buffer): 100%
- Degree of coloring (A480 nm) (pH stability of CMM; pH 8.0, Tris-HCl buffer): 0
- Purity (%) (pH stability of CMM; pH 8.0, Tris-HCl buffer): 100%
- Degree of coloring (A480 nm) (pH stability of CMM; pH 9.0, Ammonium buffer): 0
- Purity (%) (pH stability of CMM; pH 9.0, Ammonium buffer): 100%

Reference: US7951530B2, “Cyclic maltosylmaltose, cyclic maltosymaltose-forming enzyme, their preparation and uses” (Kabushiki Kaisha Hayashibara Seibutsu Kagaku Kenkyujo, priority 2003, dated 2011)
